How the values were obtained:
[1] = cited from earlier work; for systemic absorption: used topically
chronic rhinosinusitis = assay: Case studies: patients with chronic rhinosinusitis treated with nebulized formulation; type: in vivo, human; conditions: particularly in combination with the compositions and formulations; vancomycin in cases where MRSA is present
Source text: In all of the following studies, the skin testing of Example 1 was used to identify the inhalant antigen or antigens responsible for triggering systemic inflammatory symptoms and the localized inflammatory sinus symptoms. The chronic rhinosinusitis of the patients was all successfully treated. Moreover, the patients also experienced resolution of systemic inflammatory symptoms.
Each of the patients avoided additional exposure to the fungal spores that were identified by the skin test. The patients ostia was dilated, and the formulation was administered with a nebulizer. Additionally, systemic anti-fungal medication directed toward the specific fungi was administered for 4-6 weeks, followed by intermittent nebulization with mometasone and 2% mupirocin powder, which has both anti-fungal and anti-bacterial properties. These treatments were administered every other day to every third day for several months with C-reactive protein (CRP} levels checked every 4-6 weeks to monitor change.
Patient 1 is a retired nurse who presented with chronic fatigue, chronic headaches, facial pain, and a sleep disorder characterized by Rapid Eye Movement (REM) sleep deprivation. The patient was a two pack/day smoker. […] The patient was treated with a formulation of 125 mg tobramycin, […]

S. aureus = assay: Culture from Patient 7, sensitivity of bacteria; type: cell-based; conditions: Patient 7 culture
Source text: The patient underwent the standard workup for CRS, sleep disorder, and nasal obstruction, plus our diagnostic skin test and sinus CT scan.

[2] = tested on: gram negative and gram positive organisms; conditions: cited from earlier work

SMILES	safety ([1]; topical, nasal cavity and sinuses, approved for children under the age of 3)	systemic absorption [1]	effectiveness of the antibiotic (chronic rhinosinusitis)	sensitivity of cultured S. aureus (S. aureus)	oral absorption ([1]; orally)	activity against gram negative and gram positive organisms [2]
C[C@@H]1C[C@H]2[C@@H]3CCC4=CC(=O)C=C[C@]4(C)[C@@]3(Cl)[C@@H](O)C[C@]2(C)[C@@]1(OC(=O)c1ccco1)C(=O)CCl [Mometasone furoate]	very safe	very little systemic absorption	–	–	–	–
CN[C@H](CC(C)C)C(=O)N[C@H]1C(=O)N[C@@H](CC(N)=O)C(=O)N[C@H]2C(=O)N[C@H]3C(=O)N[C@H](C(=O)N[C@H](C(=O)O)c4cc(O)cc(O)c4-c4cc3ccc4O)[C@H](O)c3ccc(c(Cl)c3)Oc3cc2cc(c3O[C@@H]2O[C@H](CO)[C@@H](O)[C@H](O)[C@H]2O[C@H]2C[C@](C)(N)[C@H](O)[C@H](C)O2)Oc2ccc(cc2Cl)[C@H]1O [vancomycin]	–	–	highly effective	–	–	–
NC[C@H]1O[C@H](O[C@H]2[C@H](O)[C@@H](O[C@H]3O[C@H](CO)[C@@H](O)[C@H](N)[C@H]3O)[C@H](N)C[C@@H]2N)[C@H](N)C[C@@H]1O [tobramycin]	–	not absorbed systemically	highly effective	sensitive	very, very poorly absorbed	excellent activity

Source: patent US20180071281A1, “TREATING CHRONIC RHINOSINUSITIS” (Gerbe Labs Inc., priority 2016, published 2018)
